Test results reported in patent US12691101B2, “Compound and method for preventing or treating of respiratory diseases comprising the same as an active ingredient” (YONSEI UNIVERSITY, UNIVERSITY - INDUSTRY FOUNDATION (UIF), priority 2019, dated 2026).

Assays:
pendrin = assay: Protein expression measurement in IL-4-treated HNE cells, pendrin; assay type: cell-based, human; details: long-term treatment
Protocol: CHO-K1 and HNE cells were lysed with a cytolytic buffer (50 mM Tris-HCl, pH 7.4, 1% Nonidet P-40, 0.25% sodium deoxycholate, 150 mM NaCl, 1 mM EDTA, 1 mM Na3VO4, and protease inhibiting mixture). The total cell lysates were under centrifugation at 15,000×g for 10 minutes at 4° C. to remove cellular debris and the same amount (50 μg protein or 5 μg protein/lane) of supernatant protein was isolated on 4-12% Tris-glycine precast gel (KOMA BIOTECH, Seoul, Korea) and transferred to PVDF membrane (Millipore, Billerica, MA, USA). The membrane was blocked with 5% fat-free skim milk in TBS containing 0.1% Tween 20 (TBST) or 5% bovine serum albumin in TBS at a room temperature for 1 hour. Then, the membrane was cultured at 4° C. overnight with a primary antibody against pendrin (sc-50346; Santa Cruz Biotechnology, Santa Cruz, CA, USA), NF-κB p65 (4764S; Cell Signaling Technology, Danvers, MA, USA), p-NF-κB p65 (3033S; Cell Signaling Technology), IkBα (9242S; Cell Signaling Technology), p-IkBα (9141S; Cell Signaling Technology), β-actin (sc-47778; Santa Cruz Biotechnology), or AN01 (ab64085; Abeam). After washing with 0.05% Tween 20 (TBST) in PBS, the blot was additionally cultured with a secondary antibody (Cell Signaling Technology, Danvers, MA) at a room temperature for 60 minutes. […]

SLC26A9 = molecular target: T1, SLC26A9 (Homo sapiens, UniProt Q7LBE3); assay: Cl^−/HCO3^− exchange in CHO-K1 cells expressing SLC26A9; assay type: cell-based
T1 construct: expressed in transfected cells; host or cells: CHO-K1
Protocol: (§1) (A) The inhibition of mouse pendrin (mPDS)-mediated Cl^−/I^− exchange activity by F56 was measured in CHO-K1 cells (mean±S.E., n=5). The indicated concentration of F56 was pretreated for 10 minutes. (B) Summary of dose-response for inhibition of the human pendrin (hPDS)-mediated (closed circle, FIG. (a), C) and mPDS-mediated (open circle) Cl^−/I^− exchange activity. (C-F) Representative traces of intracellular pH in CHO-K1 cells expressing SLC26A3, SLC26A6, SLC26A7 and SLC26A9 were shown. The application of Cl^− free solution induced intracellular alkalization by Cl^−/HCO3^− exchange. The indicated concentration of F56 was pretreated for 10 minutes. (G) the effect of F56 (100 μM) on the CFTR chloride channel activity was measured in FRT cells expressing human CFTR. The CFTR current was activated by 20 μM forskolin and was inhibited by 10 μM CFTRinh-172. (H) The effect of F56 (100 μM) on the AN01 chloride channel activity was measured in FRT cells expressing human AN01. Before 10 minutes prior to AN01 activation by 100 μM ATP, F56 was added. (Right) Peak current summary (mean±S.E., n=3). (I) The effect of F56 on the hERG (Kv11.1) potassium channel activity was measured in HEK293T cells expressing human Kv11.1 (mean±S.E., n=4). […] (J) The effect of F56 on the 5-HT2A channel activity was measured in FRT cells expressing human 5-HT2A (mean±S.E., n=4). […]

mouse pendrin (mPDS) = molecular target: T2, mouse pendrin (mPDS) (Mus musculus, UniProt Q9R155); assay: Mouse pendrin-mediated Cl^−/I^− exchange activity in CHO-K1 cells; assay type: cell-based
T2 construct: expressed in transfected cells; host or cells: CHO-K1
Protocol: as §1

pendrin mRNA = assay: Pendrin mRNA expression in LPS-treated hAEC, real-time PCR; assay type: cell-based, human
Protocol: The total messenger RNA (mRNA) was extracted using TRIzol reagent (Invitrogen, Carlsbad, CA, USA), and was reverse-transcribed using a random hexamer primer, an oligo(dT) primer and SuperScript® III reverse transcriptase (Invitrogen). Quantitative real-time PCR was performed using StepOnePlus Real-Time PCR system (Applied Biosystems, Foster City, CA, USA) and Thunderbird SYBR qPCR mix (Tokyobo, Osaka, Japan). Thermal cycling conditions included the initial stage at 95° C. for 5 minutes, and subsequent 40 cycles at 95° C. for 10 seconds, at 55° C. for 20 seconds and at 72° C. for […].

HNE cells = assay: IL-4 and IL-13-induced goblet cell hyperplasia in HNE cells, PAS staining; assay type: cell-based, human; details: pretreatment
Protocol: (A) The MUC5AC mRNA expression level was determined at the indicated time after treatment of F56 ([…]) in IL-4 (10 ng/ml)-treated HNE cells (mean±S.E., n=4). (B) Periodic acid-Schiff (PAS) staining showing goblet cell hyperplasia of IL-4 and IL-13 (10 ng/ml)-treated HNE cells in presence or absence of F56 ([…]) at Day 7. (C) Measurement of the total volume of ASL and fluid meniscus in HNE cells expressing wild-type (wt) or mutant (mt) PDS. The HNE cells were treated with IL-4 (10 ng/ml, 48 hours) in presence or absence of […]. (D) Representative image of a transwell insert having normal HNE cells. Arrows indicate the fluid meniscus of HNE cells treated with IL-4 (10 ng/ml, 48 hours) in presence or absence of […] F56. (E) Representative protein expression result of pendrin in IL-4 and IL-13-treated HNE cells. (F) Measurement of the total volume of ASL and fluid meniscus. The HNE cells were treated with IL-13 (10 ng/ml, 48 hours) in presence or absence of 30 mM F56 (mean±S.E., n=3-4). * P<0.05, *** P<0.001. Size bar, 30 μm.
For evaluation of airway inflammation, left lung was fixed in 4% paraformaldehyde overnight and embedded in paraffin. […] The inflammation score showing the severity of bronchial inflammation was evaluated by 3 blind observers using a method reported conventionally. […]

T1 sequence (Q7LBE3 whole entry, species assumed): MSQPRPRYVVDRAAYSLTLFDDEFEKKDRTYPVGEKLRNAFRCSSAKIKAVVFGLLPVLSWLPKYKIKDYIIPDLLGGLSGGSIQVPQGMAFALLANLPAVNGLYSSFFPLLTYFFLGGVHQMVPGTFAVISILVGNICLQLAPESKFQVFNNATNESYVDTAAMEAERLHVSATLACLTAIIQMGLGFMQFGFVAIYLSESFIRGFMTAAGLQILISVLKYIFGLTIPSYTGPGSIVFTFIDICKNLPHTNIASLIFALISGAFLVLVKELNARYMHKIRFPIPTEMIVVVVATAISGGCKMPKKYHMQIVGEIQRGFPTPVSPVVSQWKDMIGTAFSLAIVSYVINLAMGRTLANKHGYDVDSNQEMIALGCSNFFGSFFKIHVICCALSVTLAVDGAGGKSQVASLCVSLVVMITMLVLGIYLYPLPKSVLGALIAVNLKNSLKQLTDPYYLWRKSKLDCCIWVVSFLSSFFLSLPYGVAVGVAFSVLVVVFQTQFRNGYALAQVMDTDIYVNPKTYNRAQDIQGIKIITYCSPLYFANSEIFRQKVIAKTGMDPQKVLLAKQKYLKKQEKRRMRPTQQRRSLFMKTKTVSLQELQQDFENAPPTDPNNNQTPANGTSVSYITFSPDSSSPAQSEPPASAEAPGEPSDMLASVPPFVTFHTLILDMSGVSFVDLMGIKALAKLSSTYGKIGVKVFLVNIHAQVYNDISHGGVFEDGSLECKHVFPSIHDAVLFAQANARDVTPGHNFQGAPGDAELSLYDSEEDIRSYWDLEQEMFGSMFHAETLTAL
T2 sequence (Q9R155 whole entry): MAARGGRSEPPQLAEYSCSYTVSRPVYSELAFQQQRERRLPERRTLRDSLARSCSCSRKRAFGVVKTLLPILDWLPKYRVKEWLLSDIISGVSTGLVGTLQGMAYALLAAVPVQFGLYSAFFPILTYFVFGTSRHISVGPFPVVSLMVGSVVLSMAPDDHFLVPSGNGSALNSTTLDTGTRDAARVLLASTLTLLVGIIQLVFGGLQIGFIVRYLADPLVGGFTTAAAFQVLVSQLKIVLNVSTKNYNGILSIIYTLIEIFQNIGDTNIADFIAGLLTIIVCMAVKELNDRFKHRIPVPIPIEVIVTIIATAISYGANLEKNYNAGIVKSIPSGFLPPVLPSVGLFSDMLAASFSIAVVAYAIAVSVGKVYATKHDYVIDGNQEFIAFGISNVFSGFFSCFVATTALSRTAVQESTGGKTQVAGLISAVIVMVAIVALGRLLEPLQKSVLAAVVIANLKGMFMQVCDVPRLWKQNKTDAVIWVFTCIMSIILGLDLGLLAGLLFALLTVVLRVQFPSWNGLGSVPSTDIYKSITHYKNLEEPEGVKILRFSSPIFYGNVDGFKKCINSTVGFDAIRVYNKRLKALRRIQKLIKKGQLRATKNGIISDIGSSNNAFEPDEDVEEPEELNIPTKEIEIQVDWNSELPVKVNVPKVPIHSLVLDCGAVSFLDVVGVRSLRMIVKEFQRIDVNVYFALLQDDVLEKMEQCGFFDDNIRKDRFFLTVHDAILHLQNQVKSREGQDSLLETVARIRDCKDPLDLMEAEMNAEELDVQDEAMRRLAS

CC(C)(C)c1ccc(C2=NC(=Cc3cccs3)C(=O)O2)cc1 [F56, 2-(4-(tert-butyl)phenyl)-4-(thiophen-2-ylmethylene)oxazol-5(4H)-one]
pendrin protein expression level (pendrin): strongly reduced | effect on SLC26A9 Cl^−/HCO3^− exchange (SLC26A9): did not affect | inhibition of mouse versus human pendrin-mediated exchange (mouse pendrin (mPDS)): almost the same efficacy | mRNA expression level of pendrin (pendrin mRNA): did not change | IL-4 and IL-13-induced goblet cell hyperplasia (HNE cells): significantly reduced
